Laboratory results reported in patent US12117442B2, “Methods of screening compounds” (Depixus SAS, priority 2022, dated 2024).
Where two headings read alike, the source gives them in different places.

Key:
HIV-1 TAR [1] = assay: Ramp experiments (unfolding/refolding force) on HIV-TAR RNA; format: binding; details: for effect on unfolding force: adding increasing concentrations
From the text: In a ramp experiment, the nucleic acid (e.g., RNA) molecules are subjected to multiple cycles of slowly increasing and/or decreasing force, and the value at which the molecule unfolds or refolds can be determined from a sudden change in the bead's position. Upon binding, a ligand can cause a change in the unfolding or refolding force if it stabilizes or destabilizes the RNA structure.
A 59-nucleotide HIV-TAR RNA flanked by RNA/DNA duplexes was attached to a paramagnetic bead on one side and the flowcell on the other end.
To investigate whether the platform can distinguish between different KD, three additional small molecules were used that are known to bind to the HIV-1 TAR structure with varying binding affinities (FIG. 2C-2E). […] Above 100 μM of Kanamycin, there is a widening of the force distribution (FIG. 2D).

HIV-1 TAR [2] = details: known binder of HIV-1 TAR; cited from earlier work
[3] = test system: wild type (WT) Bsu preQ1 riboswitch; assay: Step constant-force experiments on WT preQ1 riboswitch; format: binding
From the text: In a Constant-Force Experiment, the nucleic acid molecules are subjected to the same force for a certain amount of time before it is increased in a stepwise manner. The equilibrium force is the point at which the molecule spends equal time in both folded and unfolded states. Ligand binding at this force can cause a change in the dynamics of folding and unfolding.
(§1) To study the molecular dynamics of the preQ1 riboswitch using the platform described herein, wild type (WT) Bsu riboswitch was attached to the flowcell as described in Example 1. A step constant-force experiments were then performed, where the molecule is kept at a constant force for a given amount of time before increasing the force in a stepwise manner from lower to higher forces (FIG. 3B). The z position of the bead was recorded and at forces closer to equilibrium, the molecule transitioned between the folded and unfolded state (FIG. 3B). The force was maintained constant for five minutes at the equilibrium force (where the molecule spends as much time in the unfolded versus folded state) and various concentrations of the preQ1 ligand were tested. The binding of the ligand to the structure (arrows shown in representative binding analysis curve of FIG. 3C) was monitored in real time and at the level of the single molecule. A binding which causes the structure to remain in the folded state for more than 3 seconds was recorded. The kon calculated by dividing the number of events observed when the ligand is bound to the RNA structure over the time of experiment at a given concentration of the ligand. The RNA is considered bound to a ligand (here preQ1 ligand) when it stays folded for longer than 3.3 seconds. By testing different concentrations, the kon of the molecule was measured (FIG. 3D). The koff is inverse of the length of time when the RNA structure is bound by a ligand. Accordingly, a duration, when the ligand left the RNA structure (star) as the RNA structure went back to rapid transition between folded and unfolded state, was observed. The duration of this folded state allows to measure the koff of the ligand (FIG. 3E). The kon is dependent on the ligand concentration whereas the koff is not. For each force, the raw data was fitted to two different states using Hidden Markov model (FIG. 3B), and the fraction of time for which each molecule is present at the folded state was calculated over the time at each force step. The fraction was plotted against the force for each step, and the equilibrium force (inflection point) was determined for each molecule when the molecule spent 50% of the time at each state (FIG. 3F). The half-width of the force can also be determined by calculating 1/e (e=Euler's number) on either side of the inflection point, which indicates the force range where the molecule is bistable and transitions from folded and unfolded state (FIG. 3F). The transition frequency was calculated for each of the force steps recorded and plotted again the normalized force, corresponding to the equilibrium force for each bead in control conditions (FIG. 3G).
For the subsequent experiments, 1 mM Mg^2+ was added in all buffers.
To study the effect of preQ1 ligand binding to the riboswitch, constant-force step experiments were performed with increasing concentration of preQ1 ligand (FIG. 3B).

preQ1 riboswitch [4] = assay: Long constant-force experiments at 9.6 pN on preQ1 riboswitch; format: binding, Bsu
Experimental: as §1, with “The koff is inverse of the length of time when the RNA structure is bound by a ligand. Accordingly, a duration, when the ligand left the RNA structure (star) as the RNA structure went back to rapid transition between folded and unfolded state, was observed. The duration of this folded state allows to measure the koff of the ligand (FIG. 3E). The kon is dependent on the ligand concentration whereas the koff is not.” left out, “The transition frequency was calculated for each of the force steps recorded and plotted again the normalized force, corresponding to the equilibrium force for each bead in control conditions (FIG. 3G).” left out

WT preQ1 riboswitch = assay: Ramp analysis, WT preQ1 riboswitch; format: binding, Bsu; details: fit of high-force fraction
Experimental: The WT preQ1 riboswitch was used as a reference (FIG. 4B). […] The peak around the reference force decreased while there was an increase in the proportion of cycles that have a higher unfolding force. The higher force cycles can represent the binding of the ligand and formation of the pseudoknot. The fraction of cycles that have an unfolding force greater than 95% confidence interval of each bead was calculated in control conditions (FIG. 4B). […] This is similar to the KD calculated in Example 2 from the constant force experiment at 9.6 pN.

[5] = target: preQ1 riboswitch C15U mutant; assay: Ramp analysis, C15U mutant preQ1 riboswitch; format: binding, Bsu; details: fit of high-force fraction
From the text: (§2) The preQ1 riboswitch has several point substitutions that modify affinity to the preQ1 ligand (FIG. 4A).
(§3) Having established a reference point, the four different mutants were used to study the effect on preQ1 binding (FIG. 4C-4G). […] The difference could be due to the Mg^2+ used. Nonetheless, the platform was able to distinguish a 3-fold differences in KD, which is less apparent in platforms like SPR or fluorescent titration.

[6] = target: preQ1 riboswitch U7C + C15U mutant; assay: Ramp analysis, U7C + C15U double mutant preQ1 riboswitch; format: binding, Bsu; details: fit of high-force fraction
From the text: as §2, §3

[7] = test system: preQ1 riboswitch A10G mutant; assay: Ramp analysis, A10G mutant preQ1 riboswitch; format: binding, Bsu
From the text: as §2
With this mutant, the whole distribution was shifted towards higher forces, instead of having two different fractions (FIG. 4E). […] The constant-force step experiment also reflected the changes in the equilibrium force in micromolar range (FIG. 4F).

[8] = test system: preQ1 riboswitch U6C mutant; assay: Ramp analysis, U6C mutant preQ1 riboswitch; format: binding, Bsu; details: no KD from fitting maximum density or high-force density
From the text: as §2

preQ1 riboswitch [9] = details: comparison result obtained by smFRET; cited from earlier work
[10] = test system: preQ1 riboswitch C15U mutant; details: C15U versus wt; basis for selecting the mutant; cited from earlier work
[11] = test system: preQ1 riboswitch U7C + C15U mutant; details: U7C + C15U versus wt; basis for selecting the mutant; cited from earlier work
[12] = test system: preQ1 riboswitch A10G mutant; details: A10G versus wt; basis for selecting the mutant; cited from earlier work
[13] = test system: preQ1 riboswitch U6C mutant; details: U6C versus WT; basis for selecting the mutant; cited from earlier work
pre-miR-21 = assay: Dicer binding to pre-miR-21 (unfolding force); details: 20 nM full-length Dicer without magnesium
Experimental: (§4) Pre-miR-21 and pre-miR-21-bp mutants are used as substrates to measure the effect of Dicer on the folding kinetics. Dicer is a double-strand-specific ribonuclease that binds the pre-miRNAs and cleaves them to generate mature miRNAs. Adding 20 nM of full-length Dicer without magnesium causes the binding of the protein to the structure without further processing of the structure. […] Therefore, the platform described herein is useful for detecting interaction between an RNA scaffold and an RNA binding protein.

pre-miR-21-bp mutant = assay: Dicer binding to pre-miR-21-bp mutant; details: 20 nM full-length Dicer without magnesium; mutation abolishes bulge
Experimental: as §4

[14] = fit of changes in unfolding force, ramp experiments, read-out: calculated KD
[15] = 1 μM preQ1 ligand, lesser extent than 1 mM Mg^2+
[16] = increasing concentrations of preQ1, 1 mM Mg^2+ in buffers

Question: With `Cc1ccc2c(N)c(C(=O)Nc3cccc(C(F)(F)F)c3)sc2n1` [Compound 4, 3-Amino-6-methyl-N-(3-(trifluoromethyl)phenyl)thieno[2,3-b]pyridine-2-carboxamide] as the molecule, how does the “effect on unfolding force” value (HIV-1 TAR [1]) read?
Answer: The value was “decrease in the unfolding force”.

Question: What about the Kd (HIV-1 TAR [1]; [14]) of the same molecule?
Answer: The Kd was 2.99 µM.

Question: And the Kd (HIV-1 TAR [2])?
Answer: The Kd was 2.4 µM.

Question: With `[Mg+2]` [Mg^2+] as the molecule, how does the “effect on transition frequency at equilibrium force” value ([3]; 1 mM Mg^2+ alone, no ligand) read?
Answer: The value was “transition frequency decreased”.

Question: What about the “effect on unfolding equilibrium force” value ([3]; 1 mM Mg^2+ alone, no ligand) of the same molecule?
Answer: The value was “increased the unfolding equilibrium force”.

Question: Which results are given for `CCN[C@@H]1C[C@H](N)[C@@H](O[C@H]2OC(CN)=CC[C@H]2N)[C@H](O)[C@H]1O[C@H]1OC[C@](C)(O)[C@H](NC)[C@H]1O` [Netilmicin]?
Answer: effect on unfolding force (HIV-1 TAR [1]): increase in the unfolding force; Kd (HIV-1 TAR [1]; [14]): ~13.4 µM; Kd (HIV-1 TAR [2]): 1.4 µM; Ki (HIV-1 TAR [2]): ~14 µM

Question: Which results are given for `N=C(N)NCCC[C@H](N)C(N)=O` [argininamide]?
Answer: effect on unfolding and refolding force (HIV-1 TAR [1]; 10 mM): increased both the unfolding and refolding force; effect on unfolding force (HIV-1 TAR [1]): increased the unfolding force; Kd (HIV-1 TAR [1]; fit of normalized force at maximum unfolding distribution for each bead, read-out: KD): 5430 µM

Question: Which results are given for `NCc1c[nH]c2nc(N)[nH]c(=O)c12` [preQ1]?
Answer: effect of ligand and cation together ([3]; 1 μM preQ1 ligand plus 1 mM Mg^2+): additive effect; effect on transition frequency [3, 15]: decreased transition frequency; effect on unfolding equilibrium force [3, 15]: increased the unfolding equilibrium force; Kd ([3]; fit of equilibrium force at each concentration): 0.162 µM; effect on equilibrium force [3, 16]: increased equilibrium force; effect on transition frequency [3, 16]: decreased the transition frequency; Kon (preQ1 riboswitch [4]; 9.6 pN, fit of attachment rate): 0.0015 ^−1 nM^−1; Koff (preQ1 riboswitch [4]; 9.6 pN, one per mean time of ligand-bound event): 0.11 s⁻¹; Kd (preQ1 riboswitch [4]; calculated by Koff/Kon): 0.073 µM; Kd (WT preQ1 riboswitch): 0.0878 µM; Kd [5]: 0.00535 µM; Kd [6]: 0.0177 µM; increase in KD compared with WT ([7]; A10G versus WT): ~400 fold; Kd ([7]; A10G, fit of maximum unfolding force density for each bead): 34.7 µM; ligand binding [8]: abolished the ligand binding; Kd (preQ1 riboswitch [9]): 0.134 µM; Effect of mutation on binding affinity [10]: Increase versus wt; Effect of mutation on binding affinity [11]: Greatly Increase versus wt; Effect of mutation on binding affinity [12]: Decrease versus wt; Effect of mutation on binding affinity [13]: Abolished versus WT

Question: What does the source list for “Dicer: double-strand-specific ribonuclease that binds the pre-miRNAs and cleaves them to generate mature miRNAs”?
Answer: effect of binding on unfolding force (pre-miR-21): increase in the unfolding force; binding to mutant (pre-miR-21-bp mutant): does not occur
